Laboratory results published in article PMC9851200, “Multiparameter phenotypic screening for endogenous TFEB and TFE3 translocation identifies novel chemical series modulating lysosome function” (Autophagy, 2022).

Legend:
Format in all cases: binding
[1] = biological target: T1, kinases (KINOMEscan panel) (Homo sapiens, UniProt Q8N752); settings: CSNK1A1L; NEW KINOMEscan
T1 sequence (Q8N752 1-337): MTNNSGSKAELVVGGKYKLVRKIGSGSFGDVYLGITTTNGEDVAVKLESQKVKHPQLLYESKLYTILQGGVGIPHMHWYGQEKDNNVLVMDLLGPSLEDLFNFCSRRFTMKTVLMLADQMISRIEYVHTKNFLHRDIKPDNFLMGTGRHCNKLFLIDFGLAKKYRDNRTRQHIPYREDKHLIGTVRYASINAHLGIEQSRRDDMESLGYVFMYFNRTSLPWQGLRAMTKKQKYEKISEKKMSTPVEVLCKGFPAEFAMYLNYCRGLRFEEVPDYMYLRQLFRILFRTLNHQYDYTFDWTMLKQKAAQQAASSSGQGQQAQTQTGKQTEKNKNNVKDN

[2] = biological target: kinases (KINOMEscan panel) (Homo sapiens, UniProt Q15759)
Sequence of kinases (KINOMEscan panel) (Homo sapiens, UniProt Q15759) (Q15759 whole entry): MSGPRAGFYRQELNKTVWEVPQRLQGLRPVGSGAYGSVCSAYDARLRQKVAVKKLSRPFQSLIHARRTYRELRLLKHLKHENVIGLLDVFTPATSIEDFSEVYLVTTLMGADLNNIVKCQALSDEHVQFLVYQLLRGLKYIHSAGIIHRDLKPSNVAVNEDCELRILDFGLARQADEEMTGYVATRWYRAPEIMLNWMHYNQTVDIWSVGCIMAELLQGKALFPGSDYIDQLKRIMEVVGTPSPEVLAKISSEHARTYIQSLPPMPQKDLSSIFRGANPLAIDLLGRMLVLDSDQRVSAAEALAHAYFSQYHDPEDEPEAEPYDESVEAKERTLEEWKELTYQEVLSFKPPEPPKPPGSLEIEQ

[3] = biological target: T2, kinases (KINOMEscan panel) (Homo sapiens, UniProt Q09013); settings: kinase DMPK; NEW KINOMEscan
T2 sequence (Q09013 1-629): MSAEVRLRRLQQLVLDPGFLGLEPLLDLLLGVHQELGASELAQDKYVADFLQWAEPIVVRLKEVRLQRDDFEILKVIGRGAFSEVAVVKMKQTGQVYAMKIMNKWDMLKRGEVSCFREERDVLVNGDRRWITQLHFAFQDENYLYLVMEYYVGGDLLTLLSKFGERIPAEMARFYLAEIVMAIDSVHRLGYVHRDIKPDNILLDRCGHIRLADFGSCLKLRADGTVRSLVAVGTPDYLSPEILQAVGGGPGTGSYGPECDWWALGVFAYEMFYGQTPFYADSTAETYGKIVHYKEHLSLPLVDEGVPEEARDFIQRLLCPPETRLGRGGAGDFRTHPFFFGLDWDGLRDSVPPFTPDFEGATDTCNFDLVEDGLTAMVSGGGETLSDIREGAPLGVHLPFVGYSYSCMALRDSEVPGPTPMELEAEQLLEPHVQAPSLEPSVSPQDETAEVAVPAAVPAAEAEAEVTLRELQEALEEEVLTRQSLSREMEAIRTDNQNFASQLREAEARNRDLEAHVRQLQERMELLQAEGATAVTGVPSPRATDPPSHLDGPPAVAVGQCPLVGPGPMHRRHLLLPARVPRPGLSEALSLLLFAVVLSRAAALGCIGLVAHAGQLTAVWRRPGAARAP

[4] = biological target: kinases (KINOMEscan panel) (Homo sapiens, UniProt P10721, D816H); settings: NEW KINOMEscan
Sequence of kinases (KINOMEscan panel) (Homo sapiens, UniProt P10721, D816H) (P10721 26-976 D816H): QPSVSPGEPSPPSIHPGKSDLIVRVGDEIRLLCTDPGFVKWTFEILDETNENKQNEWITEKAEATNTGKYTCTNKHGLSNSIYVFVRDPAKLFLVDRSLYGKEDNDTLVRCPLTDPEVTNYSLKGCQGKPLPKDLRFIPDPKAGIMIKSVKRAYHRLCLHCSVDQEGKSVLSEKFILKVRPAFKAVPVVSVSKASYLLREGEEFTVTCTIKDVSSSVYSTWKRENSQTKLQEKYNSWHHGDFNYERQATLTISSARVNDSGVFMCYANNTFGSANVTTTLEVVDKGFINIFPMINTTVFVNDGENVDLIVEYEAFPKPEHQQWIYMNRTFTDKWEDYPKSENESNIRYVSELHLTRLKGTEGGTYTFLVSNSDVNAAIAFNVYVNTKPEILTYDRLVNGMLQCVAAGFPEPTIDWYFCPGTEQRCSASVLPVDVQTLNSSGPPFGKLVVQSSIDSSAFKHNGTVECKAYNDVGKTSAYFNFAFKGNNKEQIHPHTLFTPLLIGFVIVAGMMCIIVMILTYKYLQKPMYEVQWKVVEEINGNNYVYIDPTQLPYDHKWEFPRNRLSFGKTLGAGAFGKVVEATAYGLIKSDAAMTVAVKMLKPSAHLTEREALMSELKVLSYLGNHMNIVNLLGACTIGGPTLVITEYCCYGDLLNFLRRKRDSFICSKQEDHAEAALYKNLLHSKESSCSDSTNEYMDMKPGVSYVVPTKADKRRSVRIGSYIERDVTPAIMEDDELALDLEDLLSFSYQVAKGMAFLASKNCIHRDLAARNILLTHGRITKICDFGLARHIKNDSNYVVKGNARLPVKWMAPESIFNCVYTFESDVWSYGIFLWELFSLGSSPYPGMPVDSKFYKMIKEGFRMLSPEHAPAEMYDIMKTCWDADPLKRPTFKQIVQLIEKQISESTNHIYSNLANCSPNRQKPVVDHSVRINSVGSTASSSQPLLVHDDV

[5] = biological target: T3, kinases (KINOMEscan panel) (Homo sapiens, UniProt O14936); settings: kinase CASK; NEW KINOMEscan
T3 sequence (O14936 1-926): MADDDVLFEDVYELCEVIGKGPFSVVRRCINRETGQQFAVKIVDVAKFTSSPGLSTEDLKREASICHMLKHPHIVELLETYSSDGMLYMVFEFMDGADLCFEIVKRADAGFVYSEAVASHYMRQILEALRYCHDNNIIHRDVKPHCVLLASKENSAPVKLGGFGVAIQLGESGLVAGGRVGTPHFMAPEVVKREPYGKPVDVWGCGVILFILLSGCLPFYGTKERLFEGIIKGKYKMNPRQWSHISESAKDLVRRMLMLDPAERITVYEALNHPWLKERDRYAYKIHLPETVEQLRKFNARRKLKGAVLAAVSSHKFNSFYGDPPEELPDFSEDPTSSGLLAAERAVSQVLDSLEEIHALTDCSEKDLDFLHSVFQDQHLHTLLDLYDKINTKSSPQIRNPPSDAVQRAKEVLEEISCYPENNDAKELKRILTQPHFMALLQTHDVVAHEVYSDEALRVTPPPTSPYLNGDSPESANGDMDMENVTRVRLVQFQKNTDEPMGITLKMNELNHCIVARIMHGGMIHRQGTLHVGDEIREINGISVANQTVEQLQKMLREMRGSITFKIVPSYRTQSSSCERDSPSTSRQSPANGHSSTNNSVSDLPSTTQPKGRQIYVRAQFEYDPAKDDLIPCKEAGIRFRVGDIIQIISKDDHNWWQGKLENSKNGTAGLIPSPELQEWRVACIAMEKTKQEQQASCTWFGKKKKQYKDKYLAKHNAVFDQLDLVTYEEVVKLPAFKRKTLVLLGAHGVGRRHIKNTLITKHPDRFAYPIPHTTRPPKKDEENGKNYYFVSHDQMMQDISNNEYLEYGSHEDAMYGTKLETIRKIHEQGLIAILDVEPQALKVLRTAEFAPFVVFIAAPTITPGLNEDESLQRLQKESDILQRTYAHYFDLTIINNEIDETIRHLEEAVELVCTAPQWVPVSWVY

[6] = biological target: kinases (KINOMEscan panel) (Homo sapiens, UniProt O43293); settings: DAPK3; NEW KINOMEscan
Sequence of kinases (KINOMEscan panel) (Homo sapiens, UniProt O43293) (O43293 whole entry): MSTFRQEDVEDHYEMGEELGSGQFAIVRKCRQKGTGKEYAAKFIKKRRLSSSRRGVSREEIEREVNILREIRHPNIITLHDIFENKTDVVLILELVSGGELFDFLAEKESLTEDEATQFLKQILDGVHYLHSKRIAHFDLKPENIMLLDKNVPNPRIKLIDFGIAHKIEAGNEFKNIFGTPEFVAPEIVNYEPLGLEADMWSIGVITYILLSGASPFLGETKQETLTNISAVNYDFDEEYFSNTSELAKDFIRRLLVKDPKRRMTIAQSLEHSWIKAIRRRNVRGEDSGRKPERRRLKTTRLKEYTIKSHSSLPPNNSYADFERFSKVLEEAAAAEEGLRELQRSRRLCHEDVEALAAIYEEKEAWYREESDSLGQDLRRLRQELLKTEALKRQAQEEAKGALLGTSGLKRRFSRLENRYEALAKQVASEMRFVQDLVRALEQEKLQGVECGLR

[7] = biological target: kinases (KINOMEscan panel) (Homo sapiens, UniProt P19784); settings: CSNK2A2; NEW KINOMEscan
Sequence of kinases (KINOMEscan panel) (Homo sapiens, UniProt P19784) (P19784 whole entry): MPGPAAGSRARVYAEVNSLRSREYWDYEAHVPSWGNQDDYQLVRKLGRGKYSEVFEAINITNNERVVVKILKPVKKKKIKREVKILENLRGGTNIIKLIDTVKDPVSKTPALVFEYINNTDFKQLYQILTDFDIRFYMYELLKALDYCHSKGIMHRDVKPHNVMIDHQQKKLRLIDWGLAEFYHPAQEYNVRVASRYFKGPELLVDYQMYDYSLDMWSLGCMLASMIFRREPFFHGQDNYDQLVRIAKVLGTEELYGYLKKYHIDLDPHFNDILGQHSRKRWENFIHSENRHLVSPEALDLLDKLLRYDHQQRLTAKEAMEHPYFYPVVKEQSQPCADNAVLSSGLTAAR

[8] = biological target: kinases (KINOMEscan panel) (Homo sapiens, UniProt P42336, E545K); settings: NEW KINOMEscan
Sequence of kinases (KINOMEscan panel) (Homo sapiens, UniProt P42336, E545K) (P42336 whole entry E545K): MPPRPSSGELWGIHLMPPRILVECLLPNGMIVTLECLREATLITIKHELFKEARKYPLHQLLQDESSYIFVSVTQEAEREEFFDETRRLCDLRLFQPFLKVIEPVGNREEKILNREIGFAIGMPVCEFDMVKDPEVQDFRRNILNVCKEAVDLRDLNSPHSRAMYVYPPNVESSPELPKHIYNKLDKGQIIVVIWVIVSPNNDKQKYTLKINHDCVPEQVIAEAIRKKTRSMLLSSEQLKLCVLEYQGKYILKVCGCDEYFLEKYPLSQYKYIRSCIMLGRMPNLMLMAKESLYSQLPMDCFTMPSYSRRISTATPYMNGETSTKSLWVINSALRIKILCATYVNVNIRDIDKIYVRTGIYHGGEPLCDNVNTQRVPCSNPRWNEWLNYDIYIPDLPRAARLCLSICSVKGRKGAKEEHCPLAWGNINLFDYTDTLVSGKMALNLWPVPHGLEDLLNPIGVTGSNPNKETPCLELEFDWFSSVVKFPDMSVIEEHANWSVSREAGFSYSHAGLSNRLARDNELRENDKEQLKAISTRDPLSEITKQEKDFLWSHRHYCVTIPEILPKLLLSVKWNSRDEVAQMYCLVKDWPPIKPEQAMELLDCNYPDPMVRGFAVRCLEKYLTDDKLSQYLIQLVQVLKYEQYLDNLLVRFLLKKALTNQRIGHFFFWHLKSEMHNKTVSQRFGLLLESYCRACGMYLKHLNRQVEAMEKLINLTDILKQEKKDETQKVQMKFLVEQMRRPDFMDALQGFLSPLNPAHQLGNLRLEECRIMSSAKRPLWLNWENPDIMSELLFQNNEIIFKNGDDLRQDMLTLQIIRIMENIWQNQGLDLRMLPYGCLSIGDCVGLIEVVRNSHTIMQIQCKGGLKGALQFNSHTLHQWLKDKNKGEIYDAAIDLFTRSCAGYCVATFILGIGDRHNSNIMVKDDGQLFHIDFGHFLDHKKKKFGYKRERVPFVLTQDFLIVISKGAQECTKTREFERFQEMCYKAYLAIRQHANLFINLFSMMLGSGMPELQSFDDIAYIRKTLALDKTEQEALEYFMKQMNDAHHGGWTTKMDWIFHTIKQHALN

SMILES	KINOMEscan CSNK1A1L [1]	KINOMEscan MAPK11/p38-beta [2]	KINOMEscan DMPK [3]	KINOMEscan KIT(D816H) [4]	KINOMEscan CASK [5]	KINOMEscan DAPK3 [6]	KINOMEscan CSNK2A2 [7]	KINOMEscan PIK3CA(E545K) [8]
Cc1cccc(-c2nc(Nc3ccc4nn(C)cc4c3)c3ccccc3n2)n1 [NK167]	0	12	0	13	0	0	0	67
Cc1cccc(-c2nc(N(C)c3ccc4ncsc4c3)c3ccccc3n2)n1 [NK-161]	12	1	0	16	0	0	5	40
